Laboratory results as given in US9844542B2, “Substituted imidazopyridine and triazolopyridine compounds as negative allosteric modulators of mGluR5” (Vanderbilt University, priority 2013, dated 2017).

Target: T1, rat mGluR5 (Rattus norvegicus, UniProt P31424)
T1 construct: expressed in transfected cells
Test: mGluR5 calcium mobilization assay (FDSS, Fluo-4) in HEK 293A cells stably expressing rat mGluR5
Format: cell-based
Settings: HEK cells transfected with rat mGluR5; antagonism of glutamate EC80 response; ± = standard error of at least three experiments
Protocol: Human embryonic kidney (HEK) cells transfected with rat or human mGluR5 were plated in clear bottom assay plates for assay in a Functional Drug Screening System (FDSS). The cells were loaded with a Ca^2+-sensitive fluorescent dye (e.g., Fluo-4), and the plates were washed and placed in the FDSS instrument. Test compound was applied to cells 3 seconds after baseline readings were taken. Cells were incubated with the test compounds for 140 seconds and then stimulated with an EC20 concentration of an mGluR5 agonist (e.g., glutamate, 3,5-dihydroxyphenylglycine, or quisqualate); 60-80 seconds later an EC80 concentration of agonist was added and readings taken for an additional 40 seconds. Data were collected at 1 Hz. […] Concentration response curves were generated using a four parameter logistical equation.
The above described assay was operated in two modes. In the first mode (utilizing a triple add protocol), a range of concentrations of the present compounds were added to cells, followed by two single fixed concentrations of agonist (EC20 followed by EC80). If a compound acted as a potentiator, an EC50 value for potentiation of the EC20 response and a maximum extent of potentiation by the compound at this concentration of agonist was determined by non-linear curve fitting. If a compound acted as an antagonist, an IC50 value for antagonism of the EC80 response and a maximum extent of antagonism by the compound at this concentration of agonist was determined by non-linear curve fitting. In the second mode (utilizing a double add protocol), several fixed concentrations of the present compounds were added to various wells on a plate, followed by a range of concentrations of agonist for each concentration of present compound; the EC50 values for the agonist at each concentration of compound were determined by nonlinear curve fitting. A decrease in the EC50 value of the agonist with increasing concentrations of the present compounds (a leftward shift of the agonist concentration-response curve) is an indication of the degree of mGluR5 positive allosteric modulation at a given concentration of the present compound. An increase in the EC50 value of the agonist with increasing concentrations of the present compounds (a rightward shift of the agonist concentration response curve) is an indication of the degree of mGluR5 antagonism at a given concentration of the present compound. The second mode also indicates whether the present compounds also affect the maximum response to mGluR5 to agonists.
The mGluR5 activity was determined using the calcium mobilization assays in human embryonic kidney cells as described herein below, wherein the human embryonic kidney cells were transfected with rat mGluR5. The mGluR5 activity data for some compounds are shown as the average of at least three experiments with the standard error in these cases. If no error is indicated for the mGluR5 activity, the values given represent the results from a single experiment or the average of two experiments. The compounds in Table 1 were synthesized with methods identical or analogous to those shown herein. The requisite starting materials were commercially available, described in the literature, or readily synthesized by one skilled in the art of organic synthesis.
GluMax is the amplitude of response in the presence of 30 μM test compound as a percentage of maximal response (100 μM glutamate). Partial antagonists display concentration-response curves (CRCs) that plateau above 10%.
The preparation of rat mGluR5 stable cell-lines is as previously described (e.g. see Romano et al. J Biol. Chem. 1996 Nov. 8; 271(45):28612-6).

T1 sequence (P31424 21-1171 isoform P31424-2 limits assumed): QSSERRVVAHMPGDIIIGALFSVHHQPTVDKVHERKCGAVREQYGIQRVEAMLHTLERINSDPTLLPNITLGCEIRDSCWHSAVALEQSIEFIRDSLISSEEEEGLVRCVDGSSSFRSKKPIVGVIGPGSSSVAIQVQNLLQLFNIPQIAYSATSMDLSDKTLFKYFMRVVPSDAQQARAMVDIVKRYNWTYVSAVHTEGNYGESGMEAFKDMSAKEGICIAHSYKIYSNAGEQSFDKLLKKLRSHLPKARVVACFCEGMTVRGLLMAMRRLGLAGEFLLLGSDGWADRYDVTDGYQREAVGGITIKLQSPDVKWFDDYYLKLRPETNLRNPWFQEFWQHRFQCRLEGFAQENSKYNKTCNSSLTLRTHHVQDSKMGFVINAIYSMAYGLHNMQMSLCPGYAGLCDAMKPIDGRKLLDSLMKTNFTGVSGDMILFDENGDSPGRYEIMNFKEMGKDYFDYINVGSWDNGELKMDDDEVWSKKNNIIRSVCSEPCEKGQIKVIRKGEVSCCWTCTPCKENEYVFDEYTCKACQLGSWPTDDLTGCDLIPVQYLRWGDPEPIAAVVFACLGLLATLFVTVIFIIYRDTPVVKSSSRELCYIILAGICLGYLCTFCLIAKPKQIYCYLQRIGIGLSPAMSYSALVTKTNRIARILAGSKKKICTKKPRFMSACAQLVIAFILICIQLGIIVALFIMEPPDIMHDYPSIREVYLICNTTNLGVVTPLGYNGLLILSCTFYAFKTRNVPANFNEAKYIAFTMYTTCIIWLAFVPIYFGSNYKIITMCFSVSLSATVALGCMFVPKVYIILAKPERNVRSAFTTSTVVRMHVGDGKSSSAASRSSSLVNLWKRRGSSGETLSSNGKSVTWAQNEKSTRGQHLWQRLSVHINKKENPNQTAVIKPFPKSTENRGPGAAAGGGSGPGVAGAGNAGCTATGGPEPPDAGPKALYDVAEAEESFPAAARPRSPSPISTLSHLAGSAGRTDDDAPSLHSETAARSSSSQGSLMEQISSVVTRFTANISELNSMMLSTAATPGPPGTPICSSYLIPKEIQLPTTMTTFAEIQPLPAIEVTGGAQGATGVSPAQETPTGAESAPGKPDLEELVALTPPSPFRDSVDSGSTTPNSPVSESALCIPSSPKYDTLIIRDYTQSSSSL

| IC50 [nM] | Compound |
| --- | --- |
| 50 | O=C(Nc1cccc(F)n1)c1cc(Oc2cncc(F)c2)cn2cnnc12 |
| 33 | O=C(Nc1ccccn1)c1cc(Oc2cncc(F)c2)cn2cnnc12 |
| 12 | O=C(Nc1ccc(F)cn1)c1cc(Oc2cncc(F)c2)cn2ccnc12 |
| 1170 | O=C(Nc1cc(F)ccn1)c1cc(Oc2cncc(F)c2)cn2cnnc12 |
| 146 | COc1cccc(NC(=O)c2cc(Oc3cncc(F)c3)cn3cnnc23)n1 |
| 1180 | CCc1cccc(NC(=O)c2cc(Oc3cncc(F)c3)cn3c(C)nnc23)n1 |
| 674 | N#Cc1cncc(Oc2cc(C(=O)Nc3ccccn3)c3nncn3c2)c1 |
| 162 | O=C(Nc1ccc(F)cn1)c1cc(Oc2cncnc2)cn2cnnc12 |
| 1070 | Cc1nnc2c(C(=O)Nc3cccc(F)n3)cc(Oc3cncc(F)c3)cn12 |
| 2150 | COc1cncc(Oc2cc(C(=O)Nc3cccc(C)n3)c3nncn3c2)c1 |
| 2060 | CCc1cccc(NC(=O)c2cc(Oc3cncnc3)cn3cnnc23)n1 |
| 414 | O=C(Nc1cccc(F)n1)c1cc(Oc2cncc(Cl)c2)cn2cnnc12 |
| 310 | Cc1nc2c(C(=O)Nc3ccc(F)cn3)cc(Oc3cncc(F)c3)cn2n1 |
| 164 | Cc1nc(NC(=O)c2cc(Oc3cncc(F)c3)cn3cnnc23)ccc1F |
| 77 | Cc1ccc(NC(=O)c2cc(Oc3cncc(F)c3)cn3cnnc23)nc1 |
| 623 | CCc1cccc(NC(=O)c2cc(Oc3cncc(F)c3)cn3nc(C)nc23)n1 |
| 176 | O=C(Nc1ccccn1)c1cc(Oc2cncc(Cl)c2)cn2cnnc12 |
| 10300 | COc1cncc(Oc2cc(C(=O)Nc3ccc(F)c(C)n3)c3nncn3c2)c1 |
| 31 | O=C(Nc1cccc(F)n1)c1cc(Oc2cncc(F)c2)cn2ncnc12 |
| 1050 | Cc1ccc(NC(=O)c2cc(Oc3cncc(Cl)c3)cn3cnnc23)nc1 |
| 70 | COc1cccc(NC(=O)c2cc(Oc3cncc(F)c3)cn3ncnc23)n1 |
| 1340 | CCc1cccc(NC(=O)c2cc(Oc3cncc(Cl)c3)cn3cnnc23)n1 |
| 410 | Cc1nc2c(C(=O)Nc3cccc(F)n3)cc(Oc3cncc(F)c3)cn2n1 |
| 285 | O=C(Nc1ccc(F)cn1)c1cc(Oc2cncc(Cl)c2)cn2cnnc12 |
| > 10000 | COc1cncc(Oc2cc(C(=O)Nc3cccc(OC)n3)c3nncn3c2)c1 |
| 232 | O=C(Nc1cccc(F)n1)c1cc(Oc2cncnc2)cn2cnnc12 |

Continued, molecule first:

| Compound | IC50 [nM] |
| --- | --- |
| O=C(Nc1ccc(F)cn1)c1cc(Oc2cncc(OC(F)F)c2)cn2ncnc12 | 127 |
| Cc1csc(NC(=O)c2cc(Oc3cncc(F)c3)cn3nc(C)nc23)n1 | 135 |
| Cc1cccc(NC(=O)c2cc(Oc3cnc(C)nc3)cn3ccnc23)n1 | 3620 |
| O=C(Nc1cc(F)ccn1)c1cc(Oc2cncc(F)c2)cn2ncnc12 | 723 |
| Cc1csc(NC(=O)c2cc(Oc3cncc(C#N)c3)cn3cnnc23)n1 | 1210 |
| [2H]c1nc(NC(=O)c2cc(Oc3cnc(C)nc3)cn3cnnc23)c([2H])c([2H])c1[2H] | 7970 |
| Cc1ccc(NC(=O)c2cc(Oc3cncc(Cl)c3)cn3ncnc23)nc1 | 135 |
| [2H]c1nc(NC(=O)c2cc(Oc3cncc(OC)c3)cn3ccnc23)c([2H])c([2H])c1[2H] | 46 |
| [2H]c1nc(NC(=O)c2cc(Oc3cncc(Cl)c3)cn3ncnc23)c([2H])c([2H])c1[2H] | 43 |
| CCc1cccc(NC(=O)c2cc(Oc3cncc(C)c3)cn3ncnc23)n1 | 483 |
| Cc1csc(NC(=O)c2cc(Oc3cncc(C#N)c3)cn3ccnc23)n1 | 127 |
| Cc1cncc(Oc2cc(C(=O)Nc3cccc(C)n3)c3ncnn3c2)c1 | 160 |
| O=C(Nc1ccccn1)c1cc(Oc2cncc(F)c2)cn2ccnc12 | 16 |
| Cc1nc2c(C(=O)Nc3ccc(F)c(C)n3)cc(Oc3cncc(F)c3)cn2n1 | 846 |
| COc1cncc(Oc2cc(C(=O)Nc3ccc(F)c(C)n3)c3ncnn3c2)c1 | 1070 |
| O=C(Nc1nc(C(F)F)cs1)c1cc(Oc2cncnc2)cn2ncnc12 | 214 |
| [2H]c1nc(NC(=O)c2cc(Oc3cncc(F)c3)cn3ccnc23)c([2H])c([2H])c1[2H] | 15 |
| O=C(Nc1ccccn1)c1cc(Oc2cncnc2)cn2ncnc12 | 219 |
| COc1ccc(NC(=O)c2cc(Oc3cncc(OC)c3)cn3ncnc23)nc1 | 331 |
| COc1cncc(Oc2cc(C(=O)Nc3nc(C)cs3)c3nccn3c2)c1 | 66 |

| Compound | IC50 [nM] |
| --- | --- |
| Cc1ccc(NC(=O)c2cc(Oc3cncc(F)c3)cn3ccnc23)nc1 | 48 |
| COc1cncc(Oc2cc(C(=O)Nc3nc(C)cs3)c3ncnn3c2)c1 | 139 |
| O=C(Nc1nc(C2CC2)cs1)c1cc(Oc2cncnc2)cn2ncnc12 | 161 |
| Cc1cccc(NC(=O)c2cc(Oc3cnc(F)c(F)c3)cn3ncnc23)n1 | 128 |
| Cc1csc(NC(=O)c2cc(Oc3cncc(F)c3)cn3c(C)nnc23)n1 | 426 |
| Cc1csc(NC(=O)c2cc(Oc3cncc(F)c3F)cn3ncnc23)n1 | 83 |
| O=C(Nc1ccccn1)c1cc(Oc2cnc(F)c(F)c2)cn2ncnc12 | 52 |
| Cc1csc(NC(=O)c2cc(Oc3cncc(Cl)c3)cn3ccnc23)n1 | 182 |
| Cc1nc2c(C(=O)Nc3ccccn3)cc(Oc3cncc(F)c3)cn2n1 | 97 |
| COc1cccc(NC(=O)c2cc(Oc3cnc(C)nc3)cn3ccnc23)n1 | 2840 |
| Cc1cccc(NC(=O)c2cc(Oc3cccnc3)cn3ncnc23)n1 | 41 |
| Cc1ccc(NC(=O)c2cc(Oc3cncnc3)cn3ncnc23)nc1 | 138 |
| Cc1ccc(NC(=O)c2cc(Oc3cncc(C)c3)cn3ncnc23)nc1 | 267 |
| Cc1cccc(NC(=O)c2cc(Oc3cncnc3)cn3ncnc23)n1 | 312 |
| CCc1cccc(NC(=O)c2cc(Oc3cncc(Cl)c3)cn3ncnc23)n1 | 264 |
| O=C(Nc1nc(C(F)(F)F)cs1)c1cc(Oc2cncnc2)cn2ncnc12 | 535 |
| Cc1nc(NC(=O)c2cc(Oc3cccnc3)cn3ncnc23)ccc1F | 119 |
| Cc1csc(NC(=O)c2cc(Oc3cncc(Cl)c3)cn3ncnc23)n1 | 62 |
| COc1cncc(Oc2cc(C(=O)Nc3cccc(OC)n3)c3ncnn3c2)c1 [drawing 305] | 334 |
| Cc1csc(NC(=O)c2cc(Oc3cccnc3)cn3ncnc23)n1 | 43 |

| Compound | IC50 [nM] |
| --- | --- |
| Cc1ncc(Oc2cc(C(=O)Nc3ccccn3)c3nncn3c2)cn1 | 9410 |
| Cc1nc(NC(=O)c2cc(Oc3cncc(Cl)c3)cn3ncnc23)ccc1F | 380 |
| COc1cccc(NC(=O)c2cc(Oc3cccnc3)cn3ncnc23)n1 | 40 |
| [2H]c1nc(NC(=O)c2cc(Oc3cncc(OC)c3)cn3ncnc23)c([2H])c([2H])c1[2H] | 104 |
| COc1ccc(NC(=O)c2cc(Oc3cncc(F)c3)cn3ncnc23)nc1 | 68 |
| CCc1cccc(NC(=O)c2cc(Oc3cccnc3)cn3ncnc23)n1 | 114 |
| COc1cccc(NC(=O)c2cc(Oc3cncc(C)c3)cn3ncnc23)n1 | 260 |
| COc1cncc(Oc2cc(C(=O)Nc3ccc(C)cn3)c3nncn3c2)c1 | 3600 |
| O=C(Nc1ccc(F)cn1)c1cc(Oc2cncc(O)c2)cn2ncnc12 | 40 |
| CCc1cccc(NC(=O)c2cc(Oc3cnc(F)c(F)c3)cn3ncnc23)n1 | 559 |
| O=C(Nc1nc(CF)cs1)c1cc(Oc2cncnc2)cn2ncnc12 | 244 |
| [2H]c1nc(NC(=O)c2cc(Oc3cncc(C)c3)cn3ncnc23)c([2H])c([2H])c1[2H] | 55 |
| Cc1csc(NC(=O)c2cc(Oc3cnc(C)nc3)cn3ccnc23)n1 | 1090 |
| COc1cccc(NC(=O)c2cc(Oc3cnc(C)nc3)cn3cnnc23)n1 | > 10000 |
| Cc1nnc2c(C(=O)Nc3ccc(F)cn3)cc(Oc3cncc(F)c3)cn12 | 360 |
| COc1ccc(NC(=O)c2cc(Oc3cncc(Cl)c3)cn3ncnc23)nc1 | 92 |
| Cc1cncc(Oc2cc(C(=O)Nc3ccccn3)c3ncnn3c2)c1 | 57 |
| COc1cncc(Oc2cc(C(=O)Nc3ccc(F)cn3)c3nccn3c2)c1 | 40 |
| Cc1csc(NC(=O)c2cc(Oc3cncc(F)c3)cn3ncnc23)n1 | 49 |
